Reference: patent US20080145313A1, “Compositions and Methods for the Treatment and Prevention of Neoplastic Disorders” (Genesis Research & Development Corporation Limited, priority 2006, published 2008)

Tested on: A549 cells
Test: Growth inhibition of siRNA-transfected A549 cells, SYBR Green I DNA content
Assay type: cell-based, human
Conditions: 10 nM siRNA; DNA content 96 hours after transfection
Method in brief: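 Growth read-out: cellular DNA quantified with SYBR Green I (485/535 nm) 96 h after transfection, cells frozen, thawed and lysed in PBS/1% Triton X-100, pH 7. Cells (A549, 5×10^3 cells/cm^2) received 10 nM siRNA by RNAiMAX; non-specific siRNA served as control; triplicate wells averaged.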

| Substance | Growth Inhibition in A549 cells |
| --- | --- |
| SEQ ID NO: 4858: siRNA targeting ACLY (chain 1 TTCTTGATCAGCTTTCTCGTGAGGG; chain 2 UUCUUGAUCAGCUUUCUCGUGAGGG; Both strands are one antisense strand in DNA/RNA notation, chemistry not given here, further chemistry not given here; one strand in two spellings) | − (no growth inhibition with any siRNA) |
| SEQ ID NO: 4859: siRNA targeting ACLY (chain 1 TACAGATGAACTTGTAAAGGAGTTC; chain 2 UACAGAUGAACUUGUAAAGGAGUUC; Both strands are one antisense strand in DNA/RNA notation, chemistry not given here, further chemistry not given here; one strand in two spellings) | − (no growth inhibition with any siRNA) |
| SEQ ID NO: 4860: siRNA targeting SLC25A5 (ANT2) (chain 1 ATGCCAGATTCCCTGCAAAGTAGCG; chain 2 AUGCCAGAUUCCCUGCAAAGUAGCG; Both strands are one antisense strand in DNA/RNA notation, chemistry not given here, further chemistry not given here; one strand in two spellings) | + (inhibits by at least 50%) |
| SEQ ID NO: 4861: siRNA targeting SLC25A5 (ANT2) (chain 1 ATTTGTAGATCTTAACCAGGCAGTC; chain 2 AUUUGUAGAUCUUAACCAGGCAGUC; Both strands are one antisense strand in DNA/RNA notation, chemistry not given here, further chemistry not given here; one strand in two spellings) | − (no growth inhibition with any siRNA) |
| SEQ ID NO: 4862: siRNA targeting SLC25A5 (ANT2) (chain 1 AGAACATTGGACCATGCACCCTTGA; chain 2 AGAACAUUGGACCAUGCACCCUUGA; Both strands are one antisense strand in DNA/RNA notation, chemistry not given here, further chemistry not given here; one strand in two spellings) | − (no growth inhibition with any siRNA) |
| SEQ ID NO: 4863: siRNA targeting SLC25A6 (ANT3) (chain 1 AAAGTACCTCCAGAACTGCGTGTGC; chain 2 AAAGUACCUCCAGAACUGCGUGUGC; Both strands are one antisense strand in DNA/RNA notation, chemistry not given here, further chemistry not given here; one strand in two spellings) | ++ (inhibits by at least 75%) |
| SEQ ID NO: 4864: siRNA targeting SLC25A6 (ANT3) (chain 1 AAATCCAGCGGGTACACGAAGCAGA; chain 2 AAAUCCAGCGGGUACACGAAGCAGA; Both strands are one antisense strand in DNA/RNA notation, chemistry not given here, further chemistry not given here; one strand in two spellings) | − (no growth inhibition with any siRNA) |
| SEQ ID NO: 4865: siRNA targeting SLC25A6 (ANT3) (chain 1 TTTGCGCCCGAACTGCATCATCATG; chain 2 UUUGCGCCCGAACUGCAUCAUCAUG; Both strands are one antisense strand in DNA/RNA notation, chemistry not given here, further chemistry not given here; one strand in two spellings) | − (no growth inhibition with any siRNA) |
| SEQ ID NO: 4866: siRNA targeting UQCRC2 (chain 1 ACACCAAGTCCAATCAAAGCCATTC; chain 2 ACACCAAGUCCAAUCAAAGCCAUUC; Both strands are one antisense strand in DNA/RNA notation, chemistry not given here, further chemistry not given here; one strand in two spellings) | − (no growth inhibition with any siRNA) |
| SEQ ID NO: 4867: siRNA targeting UQCRC2 (chain 1 AAATGCATTTGCCTCTGCACTTCCC; chain 2 AAAUGCAUUUGCCUCUGCACUUCCC; Both strands are one antisense strand in DNA/RNA notation, chemistry not given here, further chemistry not given here; one strand in two spellings) | − (no growth inhibition with any siRNA) |
| SEQ ID NO: 4868: siRNA targeting UQCRC2 (chain 1 TTGCGGTCACACTTAATTTGCCACC; chain 2 UUGCGGUCACACUUAAUUUGCCACC; Both strands are one antisense strand in DNA/RNA notation, chemistry not given here, further chemistry not given here; one strand in two spellings) | + (inhibits by at least 50%) |
| SEQ ID NO: 4872: siRNA targeting RRM2B (chain 1 TTTGACAGCATCAACAATGATCTCC; chain 2 UUUGACAGCAUCAACAAUGAUCUCC; Both strands are one antisense strand in DNA/RNA notation, chemistry not given here, further chemistry not given here; one strand in two spellings) | − (no growth inhibition with any siRNA) |
| SEQ ID NO: 4873: siRNA targeting RRM2B (chain 1 TTTACTAAGTATTGGAACATCAGGC; chain 2 UUUACUAAGUAUUGGAACAUCAGGC; Both strands are one antisense strand in DNA/RNA notation, chemistry not given here, further chemistry not given here; one strand in two spellings) | − (no growth inhibition with any siRNA) |
| SEQ ID NO: 4874: siRNA targeting RRM2B (chain 1 TATCTGTGGTTTCTGCCATAACTGC; chain 2 UAUCUGUGGUUUCUGCCAUAACUGC; Both strands are one antisense strand in DNA/RNA notation, chemistry not given here, further chemistry not given here; one strand in two spellings) | − (no growth inhibition with any siRNA) |
| SEQ ID NO: 4875: siRNA targeting CTPS (chain 1 AATAACACACACTTGAGGTTCCAGG; chain 2 AAUAACACACACUUGAGGUUCCAGG; Both strands are one antisense strand in DNA/RNA notation, chemistry not given here, further chemistry not given here; one strand in two spellings) | ++ (inhibits by at least 75%) |
| SEQ ID NO: 4876: siRNA targeting CTPS (chain 1 ATAAAGGGCATGCTTTCTATGTCCC; chain 2 AUAAAGGGCAUGCUUUCUAUGUCCC; Both strands are one antisense strand in DNA/RNA notation, chemistry not given here, further chemistry not given here; one strand in two spellings) | − (no growth inhibition with any siRNA) |
| SEQ ID NO: 4877: siRNA targeting CTPS (chain 1 AGCACCTGCATACAACCAGATCTGG; chain 2 AGCACCUGCAUACAACCAGAUCUGG; Both strands are one antisense strand in DNA/RNA notation, chemistry not given here, further chemistry not given here; one strand in two spellings) | + (inhibits by at least 50%) |
| SEQ ID NO: 4878: siRNA targeting IMPDH2 (chain 1 AAATTTGTGGATTGACCCTTTGTCC; chain 2 AAAUUUGUGGAUUGACCCUUUGUCC; Both strands are one antisense strand in DNA/RNA notation, chemistry not given here, further chemistry not given here; one strand in two spellings) | − (no growth inhibition with any siRNA) |
| SEQ ID NO: 4880: siRNA targeting IMPDH2 (chain 1 TCCCTGTTCATATTTCTTCACTTTC; chain 2 UCCCUGUUCAUAUUUCUUCACUUUC; Both strands are one antisense strand in DNA/RNA notation, chemistry not given here, further chemistry not given here; one strand in two spellings) | + (inhibits by at least 50%) |

Same assay, conditions: 10 nM siRNA; up to 120 hours post-transfection (FIG. 8)

| Substance | growth inhibition, A549 |
| --- | --- |
| SEQ ID NO: 4872: siRNA targeting RRM2B (chain 1 TTTGACAGCATCAACAATGATCTCC; chain 2 UUUGACAGCAUCAACAAUGAUCUCC; Both strands are one antisense strand in DNA/RNA notation, chemistry not given here, further chemistry not given here; one strand in two spellings) | No inhibition of growth |
| SEQ ID NO: 4873: siRNA targeting RRM2B (chain 1 TTTACTAAGTATTGGAACATCAGGC; chain 2 UUUACUAAGUAUUGGAACAUCAGGC; Both strands are one antisense strand in DNA/RNA notation, chemistry not given here, further chemistry not given here; one strand in two spellings) | No inhibition of growth |

Same assay, conditions: A549 cells, 10 nM siRNA, DNA content 96 hours after transfection, transporter gene targets

| Substance | Growth Inhibition in A549 cells by 10 nM siRNA |
| --- | --- |
| SEQ ID NO: 4940: siRNA targeting ATP2B2 (PMCA2) (chain 1 TTCTTGTGCATGCTGGCCTTCTTCC; chain 2 UUCUUGUGCAUGCUGGCCUUCUUCC; chemistry not given here; one strand in two spellings) | ++ (inhibits by at least 75%) |
| SEQ ID NO: 4941: siRNA targeting ATP2B2 (PMCA2) (chain 1 ATCTGTGTCTGGATCCGATTCAGGC; chain 2 AUCUGUGUCUGGAUCCGAUUCAGGC; chemistry not given here; one strand in two spellings) | + (inhibits by at least 50%) |
| SEQ ID NO: 4942: siRNA targeting ATP2B2 (PMCA2) (chain 1 TTCCAGGTCGGTGTCATCAATGAGG; chain 2 UUCCAGGUCGGUGUCAUCAAUGAGG; chemistry not given here; one strand in two spellings) | − (no growth inhibition) |
